How the values were obtained:
[1] = Beef bouillon, evaluation by a panel of experienced tasters; details: 1 ppm dosed to bouillon prepared from bouillon cubes
Experimental: A beef bouillon was prepared using bouillon cubes obtained from a local supermarket.

[2] = Mango flavoured beverage, evaluation by a panel of experienced tasters; details: 1 ppm dosed to mango drink (mango flavour 0.05% w/w, mango juice 0.18% w/w, sugar 8% w/w, citric acid 0.1% w/w)
Experimental: A mango-flavoured beverage was prepared using a standard mango flavour (0.05% w/w), mango juice (0.18% w/w), sugar (8% w/w) and citric acid (0.1% w/w).

Row | SMILES | taste of the beef bouillon compared with the reference (panel) [1] | taste of the mango drink compared with the reference drink (panel) [2]
1 | CCCCCCCCCCCCCCCCCCNC(=O)C(N)CCSC (stereo not shown) [Ex 1, 2-amino-4-(methylthio)-N-octadecylbutanamide] | more salty and more full | –
2 | CCCCCCCCCCCCCCCCCCNC(=O)C1CCCN1 (stereo not shown) [Ex 3, N-octadecylpyrrolidine-2-carboxamide] | – | more over-ripe, more sweet, and more full and had an increased mouthfeel
3 | CCCCCCCCCCCCCCCCCCNC(=O)C1(N)CC1 [Ex 5, 1-amino-N-octadecylcyclopropanecarboxamide] | – | more sweet, more ripe mango, more full and more long-lasting
4 | CCCCCCCCCCCCCCCCNC(=O)CCCN [Ex 7, N-hexadecyl 4-aminobutyramide] | more salty and more umami and was more longlasting | –

Reference: patent US11834393B2, “Organic compounds having taste-modifying properties” (GIVAUDAN SA, priority 2013, dated 2023)
